Reference: US8252768B2, “Designer therapy of pancreatic tumors” (University of Miami, priority 2006, dated 2012)
Read-outs that look alike come from different tables or passages of the source. Marks after values point to notes of the source that are not given here.

What was measured:
cytidine deaminase (CD) = biological target: T1, cytidine deaminase (CD) (Homo sapiens, UniProt P32320); assay: Competition assay for substrates of cytidine deaminase, crude extracts of PC-3 cells; assay type: biochemical; details: for substrate for cytidine deaminase (in words): competition studies, human tumor cell extracts; for % Inhibition (CD) / inhibition at 250 µM: competitor 250 μM; for % Inhibition (CD) / inhibition / inhibition at 250 µM: ratio 10, PC-3 extracts
T1 construct: Crude extracts of PC-3 cells in culture were prepared as described above; endogenous in cells; host or cells: PC-3 cells (crude extract supernatant)
T1 sequence (P32320 whole entry): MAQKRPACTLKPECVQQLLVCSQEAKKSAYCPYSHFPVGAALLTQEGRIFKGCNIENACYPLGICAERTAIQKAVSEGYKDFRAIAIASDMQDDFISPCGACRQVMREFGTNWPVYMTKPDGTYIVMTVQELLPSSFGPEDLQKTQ
Description: The crude enzyme extract (the supernatant of a 10 minute 14,000×g centrifugation) was then added. When cytidine was used as substrate, assays were conducted with benzacyclouridine to inhibit uridine phosphorylases. […] After 0, 15, and 30 minutes, the reaction was stopped and denatured protein removed as above for dC Kinase. […] Aliquots were then spotted on PE cellulose TLC sheets and the reactants separated with a solvent system composed of isopropanol:HCl:H2O (170:41:39). […] The nucleosides were visualized under U.V. light and the spots cut out and counted. […] Enzyme activity was expressed as nmole formed in 30 min/mg/protein.
Competition assays to determine Substrate Specificity: Crude extracts of PC-3 cells in culture were prepared as described above. Two concentrations of crude extract were utilized for the studies as determined from the analysis of protein.
The assays were run for 0, 15, and 30 minutes.

PC-3 cells [1] = assay: Radiosensitization of cells in culture (Cobalt 60, clonogenic survival); assay type: cell-based, human; details: for effect of tetrahydrouridine (H4U) on radiosensitization (in words) / effect of thymidine on radiosensitization (in words): cells in culture
Description: (§1) Toxicity and Radiation Studies: The methods using clonogenic assays described by Perez and Greer (Int. J. Rad. Oncology: Biology, Physics 12, 1523-1527, 1986—incorporated herein by reference in its entirety) were followed.
Irradiation of Cells in Culture: 2×10^5 cells were plated in 25 cm^2 flasks and grown for 18 hr at 37° C. in a humidified 5% CO2 atmosphere. The medium was then removed and replaced with medium containing the appropriate drug concentrations and incubated for 72 hrs then removed and the cell monolayers were rinsed twice with PBS. The flasks were then filled with 50 ml of radiation medium (3 parts RPMI 1640 and 7 parts PBS plus antibiotics and glutamine). The cells were then irradiated using a Cobalt 60 irradiator. The cell monolayers were placed 35 cm away from the source and irradiated for appropriate times according to the dose rate. The dose rate was calculated, at this distance, using ionization chambers. Attenuation factors due to the polystyrene flask (0.9923) and the medium (H2O=0.8715) were considered in calculating the exposure period.
After irradiation the cell monolayers were washed again, replenished with growth media, and incubated for 1½ hours. The cell monolayers were then trypsinized and the cells serially diluted, appropriate dilutions were then plated in 60 mm dishes and incubated for 7-9 days at 37° C. and CO2. At the end of this period the cells were stained with crystal violet and the colony forming ability determined by considering 25 or more normal cells as a viable colony. The viabilities were determined and the appropriate survival curves derived. All conditions were done in duplicate using two flasks treated under identical conditions.

PC-3 cells [2] = assay: Cytotoxicity (clonogenic) assay, 72 h drug exposure; assay type: cell-based, human
Description: as §1
Cytotoxicity Assays: 5×10^5 cells were plated in 60 mm tissue culture dishes in 5 mls of the optimal growth media for the particular cell line in an humidified 95% air-5% CO2 atmosphere. The plates were incubated for 18-20 hours to allow for attachment and log-phase growth to begin. At the end of this period the growth medium was aspirated and replaced with […]. Four times (4×) concentrated solutions were prepared and then 1 ml was added to the plates; and growth media were then added to a total volume of […]. The plates were then incubated for 72 hours and the cells harvested by trypsinization. The cells were then serially diluted in growth medium replated into 60 mm dishes and incubated for 6 to 9 days depending on the cell line. After this incubation period, the media was aspirated and the colonies were washed twice with a PBS solution. The colonies were then stained with a 0.2% crystal violet-20% ethanol solution for 5 min. the stain was removed, the colonies were washed and air dried. A viable colony was one consisting of 25 or more normal appearing cells and was considered to have arisen from a single cell. The colonies were counted under a dissecting microscope. Two to three dilutions for every condition were plated. Dishes containing 30-300 colonies were used in the calculation and all conditions were done in duplicate.

uridine/cytidine kinase = assay: Competition assay for substrates of uridine/cytidine kinase, crude extracts of T24 cells; assay type: biochemical, human
Description: 2 mM dithiothreitol (DTT) and 0.5 mM phenylmethylsulfanyl fluoride were added just before extraction. The tissue sample was homogenized in a Dounce glass homogenizer and then sonicated for 3 five-second pulses in a Branson Sonifier with a micro-tip at 25 KHz to disrupt the cells. During homogenization and sonication the extract was kept cold throughout the procedures. The tissue extract was then centrifuged at 14,000×g at 4° C. for 15 min., and the supernatant (the crude enzyme extract) was removed. The supernatant was sheared 20 times on ice utilizing a 1 cc syringe with a 27 G½ needle to reduce viscosity. […] 2 mM DTT and 340 μM H4U were added just before the assay. Finally, to the reaction mixture, 5 μl 200 mM creatine phosphate and creatine phosphokinase (0.5 unit/μl) was added to 150 μl of the section mixture. […] H2O bath for 1 minute before 20 μl of the crude enzyme extract was added to initiate the reaction. […] At 0, 30 and 60 minutes the reaction mixture, divided in separate tubes, was heated in a boiling water bath for 2 minutes to terminate the reaction. Denatured protein was then removed by centrifugation of the sample for 2 minutes at 14,000×g. The amount of nucleotide formed was determined by spotting 20 μl aliquots of the reaction mixture onto DE-81 2.2 cm Whatman filter discs. After air drying, the unphosphorylated substrate nucleoside was removed by washing twice for 10 min. in 20 mM ammonium formate and twice for 5 min. in deionized H2O with gentle stirring. A control, lacking the crude enzyme extract was included with each determination. The washed papers were dried under a heat lamp and then placed into individual scintillation vials, eluted for 30 min. in 1 ml of 0.1M HCl-0.1M KCL and then vortexed in 5 ml of scintillation fluid and counted. Enzyme activity was expressed as pmoles/min/mg protein.
When uridine was utilized as substrate, benzacyclouridine was added to prevent the catabolism of the substrate by uridine phosphorylase and tetrahydrouridine was omitted.

[3] = biological target: deoxycytidine kinase (dCK) (Homo sapiens, UniProt P27707); assay: Competition assay for substrates of deoxycytidine kinase, crude extracts of PC-3 cells; details: for inhibition at 250 µM: read-out: % Inhibition (dCK)
Chain of deoxycytidine kinase (dCK) (P27707 whole entry): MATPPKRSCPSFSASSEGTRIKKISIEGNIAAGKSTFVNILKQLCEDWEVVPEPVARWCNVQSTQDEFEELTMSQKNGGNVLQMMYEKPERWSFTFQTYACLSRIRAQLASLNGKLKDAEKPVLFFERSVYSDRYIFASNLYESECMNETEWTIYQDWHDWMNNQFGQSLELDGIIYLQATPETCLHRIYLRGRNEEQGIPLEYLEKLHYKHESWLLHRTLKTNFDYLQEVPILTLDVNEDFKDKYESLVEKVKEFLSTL

[4] = substrate 3H-Deoxycytidine 25 μM
[5] = competitor 100 μM, substrate 3H-Cytidine 8.3 μM
[6] = competitor 100 μM, substrate 3H-Uridine 16.7 μM
[7] = competitor 250 μM, substrate 3H-Cytidine 8.3 μM
[8] = competitor 250 μM, substrate 3H-Uridine 16.7 μM
[9] = competitor 500 μM, substrate 3H-Cytidine 8.3 μM
[10] = competitor 500 μM, substrate 3H-Uridine 16.7 μM
[11] = competitor 750 μM, substrate 3H-Uridine 16.7 μM

## CNc1nc(=O)n([C@H]2C[C@H](O)[C@@H](CO)O2)cc1Cl [4-N,methylamino CldC, 4-N, methylamino-5-Chloro-2′-deoxycytidine]
Cytidine deaminase (CD)
  substrate for cytidine deaminase (in words): reasonably good substrate
Cytidine deaminase (CD); substrate 3H-Cytidine 25 μM
  % Inhibition (CD): 13%
Cytidine deaminase (CD); [4]
  % Inhibition (CD): 29%
PC-3 cells [1]
  radiosensitization of PC-3 cells (in words): potent radiosensitizing effect
  effect of tetrahydrouridine (H4U) on radiosensitization (in words): antagonism by tetrahydrouridine
  effect of thymidine on radiosensitization (in words): antagonized by thymidine

## CNc1nc(=O)n([C@H]2C[C@H](O)[C@@H](CO)O2)cc1F [4-N,methylamino FdC, 4-N, methylamino-5-Fluoro-2′-deoxycytidine]
Cytidine deaminase (CD); listed as 4-N, methylamino FdC
  substrate for cytidine deaminase (in words): poor substrate
Cytidine deaminase (CD); listed as 4-N, methylamino-5-Fluoro-2′-deoxycytidine
  substrate for cytidine deaminase (in words): moderate to poor substrate
Cytidine deaminase (CD); substrate 3H-Cytidine 25 μM
  % Inhibition (CD): 0%
Cytidine deaminase (CD); [4]
  % Inhibition (CD): 4.0%
PC-3 cells [2]; PC-3 cells
  effect of thymidine on cytotoxicity (in words): antagonized by thymidine
PC-3 cells [2]; PC-3 cells, listed as 4-N, methylamino FdC
  effect of tetrahydrouridine (H4U) on cytotoxicity / viability (in words): antagonized by tetrahydrouridine
PC-3 cells [2]; PC-3 cells, listed as 4N, methylFdC
  effect of tetrahydrouridine (H4U) on cytotoxicity / viability (in words): prevented by tetrahydrouridine

## O=c1[nH]c(=O)n(COCCO)cc1Cc1ccccc1 [5-Benzacyclouridine]
uridine/cytidine kinase; competitor 1500 μM, substrate 3H-Cytidine 8.3 μM
  % Inhibitation (U/C kinase): 0%
uridine/cytidine kinase; competitor 1500 μM, substrate 3H-Uridine 16.7 μM
  % Inhibitation (U/C kinase): 7.0%

## Nc1nc(=O)n([C@H]2C[C@H](O)[C@@H](CO)O2)cc1Br [5-BrdC, 5-Bromo-2′-deoxycytidine]
Cytidine deaminase (CD)
  substrate for cytidine deaminase (in words): good substrates
Cytidine deaminase (CD); substrate 3H-Cytidine 25 μM
  inhibition: 50%
PC-3 cells [1]
  effect of thymidine on radiosensitization (in words): antagonized by thymidine
[3]; competition studies, human tumor cell extracts
  substrate for deoxycytidine kinase (in words): very poor substrates
[3]
  inhibition at 250 µM: 0%

## Nc1nc(=O)n([C@@H]2O[C@H](CO)[C@@H](O)[C@H]2O)cc1Cl [5-Chlorocytidine]
PC-3 cells [2]; human, 72 h
  effect of tetrahydrouridine (H4U) on cytotoxicity / viability (in words): H4U decreases viability
uridine/cytidine kinase
  substrate for U/C kinase of T24 cells (in words): moderate substrates
uridine/cytidine kinase; [5]
  % Inhibitation (U/C kinase): 10%
uridine/cytidine kinase; [6]
  % Inhibitation (U/C kinase): 2%
uridine/cytidine kinase; [7]
  % Inhibitation (U/C kinase): 24%
uridine/cytidine kinase; [8]
  % Inhibitation (U/C kinase): 23%
PC-3 cells [1]
  radiosensitization of PC-3 cells (in words): radiosensitization
  effect of tetrahydrouridine (H4U) on radiosensitization (in words): decreases radiosensitization

## Nc1nc(=O)n([C@H]2C[C@H](O)[C@@H](CO)O2)cc1Cl [5-Chlorodeoxycytidine, 5-chloro-2′-deoxycytidine, reference compound]
Cytidine deaminase (CD); [4]
  inhibition at 250 µM: 42%
Cytidine deaminase (CD); substrate 3H-Cytidine 25 μM
  inhibition: 80%
uridine/cytidine kinase; [8]
  % Inhibitation (U/C kinase): 0%
uridine/cytidine kinase; [9]
  % Inhibitation (U/C kinase): 5.1%
[3]
  inhibition at 250 µM: 72%

## O=c1[nH]c(=O)n([C@H]2C[C@H](O)[C@@H](CO)O2)cc1Cl [5-Chlorodeoxyuridine]
uridine/cytidine kinase; competitor 200 μM, substrate 3H-Cytidine 8.3 μM
  % Inhibitation (U/C kinase): 7.0%
uridine/cytidine kinase; [8]
  % Inhibitation (U/C kinase): 0%

## Nc1nc(=O)n([C@@H]2O[C@H](CO)[C@@H](O)[C@H]2O)cc1F [5-Fluorocytidine]
uridine/cytidine kinase; [6]
  % Inhibitation (U/C kinase): 34%
uridine/cytidine kinase; [7]
  % Inhibitation (U/C kinase): 51%
uridine/cytidine kinase; [8]
  % Inhibitation (U/C kinase): 58%
uridine/cytidine kinase; [9]
  % Inhibitation (U/C kinase): 66%

## Nc1nc(=O)n([C@H]2C[C@H](O)[C@@H](CO)O2)cc1F [5-Fluorodeoxycytidine, reference compound]
Cytidine deaminase (CD); [4]
  inhibition at 250 µM: 50%
Cytidine deaminase (CD); substrate 3H-Cytidine 25 μM
  inhibition: 83%
uridine/cytidine kinase; [9]
  % Inhibitation (U/C kinase): 4.8%
[3]
  inhibition at 250 µM: 90%

## O=c1[nH]c(=O)n([C@@H]2O[C@H](CO)[C@@H](O)[C@H]2O)cc1F [5-Fluorouridine]
uridine/cytidine kinase; [6]
  % Inhibitation (U/C kinase): 56%
uridine/cytidine kinase; [8]
  % Inhibitation (U/C kinase): 80%

## Cc1cn([C@H]2C[C@H](O)[C@@H](CO)O2)c(=O)nc1N [5-methyldC, reference compound]
Cytidine deaminase (CD); substrate 3H-Cytidine 25 μM
  % Inhibition (CD): 30%

## Nc1ccn([C@@H]2O[C@H](CO)[C@@H](O)[C@H]2O)c(=O)n1 [Cytidine]
uridine/cytidine kinase; [5]
  % Inhibitation (U/C kinase): 66%
uridine/cytidine kinase; [6]
  % Inhibitation (U/C kinase): 57%
uridine/cytidine kinase; [7]
  % Inhibitation (U/C kinase): 85%
uridine/cytidine kinase; [8]
  % Inhibitation (U/C kinase): 89%
uridine/cytidine kinase; [9]
  % Inhibitation (U/C kinase): 88%
uridine/cytidine kinase; [10]
  % Inhibitation (U/C kinase): 90%
uridine/cytidine kinase; [11]
  % Inhibitation (U/C kinase): 96%

## Nc1ccn([C@H]2C[C@H](O)[C@@H](CO)O2)c(=O)n1 [Deoxycytidine]
Cytidine deaminase (CD); [4]
  inhibition at 250 µM: 66%
uridine/cytidine kinase; [7]
  % Inhibitation (U/C kinase): 10%
uridine/cytidine kinase; [8]
  % Inhibitation (U/C kinase): 0%
uridine/cytidine kinase; [9]
  % Inhibitation (U/C kinase): 20%

## O=c1ccn([C@H]2C[C@H](O)[C@@H](CO)O2)c(=O)[nH]1 [Deoxyuridine]
uridine/cytidine kinase; [8]
  % Inhibitation (U/C kinase): 0** %

## O=c1[nH]c(=O)n([C@H]2C[C@H](O)[C@@H](CO)O2)cc1I [IdU, 5-Iododeoxyuridine, reference compound]
PC-3 cells [2]
  effect of tetrahydrouridine (H4U) on cytotoxicity / viability (in words): relative lack of the effect of tetrahydrouridine
PC-3 cells [1]
  effect of tetrahydrouridine (H4U) on radiosensitization (in words): relative lack of the effect of tetrahydrouridine

## O=c1ccn([C@@H]2O[C@H](CO)[C@@H](O)[C@H]2O)c(=O)[nH]1 [Uridine]
Cytidine deaminase (CD); [4]
  inhibition at 250 µM: 2%
uridine/cytidine kinase; [5]
  % Inhibitation (U/C kinase): 59%
uridine/cytidine kinase; [6]
  % Inhibitation (U/C kinase): 62%
uridine/cytidine kinase; [7]
  % Inhibitation (U/C kinase): 75%
uridine/cytidine kinase; [8]
  % Inhibitation (U/C kinase): 80%
uridine/cytidine kinase; [9]
  % Inhibitation (U/C kinase): 80%
uridine/cytidine kinase; [10]
  % Inhibitation (U/C kinase): 87%
uridine/cytidine kinase; competitor 750 μM, substrate 3H-Cytidine 8.3 μM
  % Inhibitation (U/C kinase): 86%
uridine/cytidine kinase; [11]
  % Inhibitation (U/C kinase): 90%
[3]
  inhibition at 250 µM: 0%
